In PubChem BioAssay (NCI):
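How tested: cells in 96-well plates exposed to compound for 48 hours at five concentrations. At the GI50, growth is halved. At the TGI there is no net growth.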

Key:
Assay in all cases: NCI anticancer screen, dose series, 48 h
K-562 leukemia = system: K-562 leukemia
U251 CNS = system: U251 CNS
SF-539 CNS = system: SF-539 CNS
HCC-2998 colon = system: HCC-2998 colon
UACC-62 melanoma = system: UACC-62 melanoma
SW-620 colon = system: SW-620 colon
M14 melanoma = system: M14 melanoma
SNB-75 CNS = system: SNB-75 CNS
ACHN renal = system: ACHN renal
NCI/ADR-RES ovarian = system: NCI/ADR-RES ovarian

Compound	TGI (K-562 leukemia) [µM]	TGI (U251 CNS) [µM]	TGI (SF-539 CNS) [µM]	TGI (HCC-2998 colon) [µM]	TGI (UACC-62 melanoma) [µM]	TGI (SW-620 colon) [µM]	TGI (M14 melanoma) [µM]	TGI (SNB-75 CNS) [µM]	TGI (ACHN renal) [µM]	TGI (NCI/ADR-RES ovarian) [µM]	GI50 (K-562 leukemia) [µM]	GI50 (U251 CNS) [µM]	GI50 (SF-539 CNS) [µM]	GI50 (HCC-2998 colon) [µM]	GI50 (UACC-62 melanoma) [µM]	GI50 (SW-620 colon) [µM]	GI50 (M14 melanoma) [µM]	GI50 (SNB-75 CNS) [µM]	GI50 (ACHN renal) [µM]	GI50 (NCI/ADR-RES ovarian) [µM]
Cn1c2ccccc2c(=O)c2c(O)cc3c(c21)CC(C1(C)CO1)O3 (centres undefined)	7.84	11.7	10.8	5.4	4.9	3.38	2.93	24	5.73	3.2	–	–	–	–	–	–	–	–	–	–
CCN(Cc1ccccc1Cl)c1ccc(CO)c(Cl)c1	14.6	15	29	25.4	1.63	16.8	31.7	21.8	27.3	26.5	1.63	0.943	15	11.9	0.152	1.61	15.3	7.13	13.7	12.2
Clc1cc2c(nn1)Nc1ccccc1S2	> 100	> 100	> 100	> 100	> 100	> 100	> 100	> 100	> 100	> 100	> 100	> 100	> 100	> 100	> 100	> 100	> 100	> 100	> 100	> 100
O=C1C(=O)c2ccccc2C(O)=C1CCCc1ccc(C2CCCC2)cc1	10.4	33.6	25.9	8.34	18.5	17.1	23.7	38.7	39.6	30.2	3.31	5.3	5.57	2.99	3.73	4.87	8.86	6.55	6.08	5.89
CN1CC[C@]2(c3cccc(O)c3)CC(=O)/C(=C/c3ccccc3)[C@H]1C2	17.7	9.92	5.2	9.99	12.7	11.9	9.46	14.4	7.03	7.35	–	–	–	3.11	3.06	–	–	3.89	–	2.42
O=C1C=CC(=Nc2ccccc2)c2ccccc21	42.6	20.5	29	23.1	12.9	> 100	18.6	20	27.4	95.4	–	–	–	–	–	–	–	–	–	–
CCOC(=O)c1ccc2c(c1)nc(/C=C/c1ccc(Cl)cc1)n2-c1cc(C(C)(C)C)[nH]n1	> 100	13.2	5.09	> 100	4.79	> 100	> 100	5.51	5.75	> 100	4.41	3.28	2.09	> 100	1.47	12.8	20.9	1.9	2.03	10.1
